The source of these data is publication PMC3741113, “De-Novo Design of Antimicrobial Peptides for Plant Protection” (PLoS ONE, 2013).

Ends that are not written are not given here.

The test system of assay [1] is Clavibacter michiganensis ssp. michiganensis. To be noted: Table 4, incubation period 2d; LB-medium, 27°C.
The test system of assay [2] is Pectobacterium carotovorum ssp. carotovorum. To be noted: Table 4, incubation period 1d; LB-medium, 27°C.
The subject of another assay is Xanthomonas vesicatoria. To be noted: Table 4, incubation period 2d; LB-medium, 27°C.
The subject of assay [3] is Pseudomonas syringae pv. tomato. The settings on record: Table 4, incubation period 1d; LB-medium, 27°C.
For assay [4], the system named is Pseudomonas syringae pv. syringae. To be noted: Table 4, incubation period 1d; LB-medium, 27°C.
The subject of the next assay is Pseudomonas corrugata. The settings on record: Table 4, incubation period 2d; LB-medium, 27°C.

As for KKKKKKIIKKII-NH2 [SP1-22], the MIC in assay [1] is over 10 µg/mL; in assay [2] it was over 10 µg/mL; against Xanthomonas vesicatoria, over 10 µg/mL; in assay [3], 1.0 µg/mL; in assay [4], 2.5 µg/mL; in the assay on Pseudomonas corrugata, over 10 µg/mL.
Consider RKKRLKVVKRLV-NH2 [SP1-4], for which the MIC in assay [1] was over 10 µg/mL; in assay [2] it was over 10 µg/mL; against Xanthomonas vesicatoria, over 10 µg/mL; in assay [3] it was 2.5 µg/mL; in assay [4], 5.0 µg/mL; with Pseudomonas corrugata, over 10 µg/mL.
On to KKKKIIKRLI-NH2 [SP1-17], for which the MIC in assay [1] was over 10 µg/mL; in assay [2], over 10 µg/mL; against Xanthomonas vesicatoria, over 10 µg/mL; in assay [3] it was 1.0 µg/mL; in assay [4] it was under 0.1 µg/mL; in the assay on Pseudomonas corrugata, 5.0 µg/mL.
Regarding KRRKAIKILKLIAKLIRKKR-NH2 [SP13-8], the MIC in assay [1] is 0.1 µg/mL; in assay [2] it was over 10 µg/mL; in the assay with Xanthomonas vesicatoria it was 0.1 µg/mL; in assay [3], 10 µg/mL; in assay [4], over 10 µg/mL; against Pseudomonas corrugata it was 0.25 µg/mL.
As for LRFARRALRRLF-NH2 [SP10-9], the MIC in assay [1] is 1.0 µg/mL; in assay [2], 2.5 µg/mL; in the assay with Xanthomonas vesicatoria it was 1.0 µg/mL; in assay [3] it was 0.25 µg/mL; in assay [4] it was 0.25 µg/mL; against Pseudomonas corrugata, 0.5 µg/mL.
On to RKKKVKLLKRLV-NH2 [SP1-3], for which the MIC in assay [1] is over 10 µg/mL; in assay [2], over 10 µg/mL; in the assay on Xanthomonas vesicatoria it was over 10 µg/mL; in assay [3], 5.0 µg/mL; in assay [4], 0.25 µg/mL; with Pseudomonas corrugata, 2.5 µg/mL.
Turning to RKKRKKLIKRLI-NH2 [SP1-19], the MIC was 5.0 µg/mL in assay [1]; over 10 µg/mL in assay [2]; 5.0 µg/mL against Xanthomonas vesicatoria; over 10 µg/mL in assay [3]; under 0.1 µg/mL in assay [4]; 0.5 µg/mL in the assay on Pseudomonas corrugata.
Consider RKKRLRVVRRLV-NH2 [SP1-5], for which the MIC in assay [1] was over 10 µg/mL; in assay [2] it was over 10 µg/mL; in the assay with Xanthomonas vesicatoria it was over 10 µg/mL; in assay [3], 1.0 µg/mL; in assay [4], over 10 µg/mL; in the assay with Pseudomonas corrugata it was 5.0 µg/mL.
For the substance RKKKLKIIKRLI-NH2 [SP1-7], the minimal inhibitory concentration (MIC) in assay [1] is 2.5 µg/mL; in assay [2] it was over 10 µg/mL; against Xanthomonas vesicatoria it was 1.0 µg/mL; in assay [4], 0.1 µg/mL; in the assay on Pseudomonas corrugata, 0.5 µg/mL.
Turning to LRFIKKILKKLI-NH2 [SP10-4], the MIC in assay [1] worked out at 0.25 µg/mL; in assay [2], 2.5 µg/mL; against Xanthomonas vesicatoria it was 0.1 µg/mL; in assay [3] it was 1.0 µg/mL; in assay [4], 0.25 µg/mL; against Pseudomonas corrugata, 2.5 µg/mL.
As to KRRLILRILRLAIRALVKKR-NH2 [SP13-2], the minimal inhibitory concentration (MIC) in assay [1] is 0.25 µg/mL; in assay [2], over 10 µg/mL; against Xanthomonas vesicatoria it was 0.25 µg/mL; in assay [3], 10 µg/mL; in assay [4], 5.0 µg/mL; in the assay with Pseudomonas corrugata it was 5.0 µg/mL.
On to RKKKFKIFKRLF-NH2 [SP1-14], for which the MIC in assay [1] is 1.0 µg/mL; in assay [2], over 10 µg/mL; against Xanthomonas vesicatoria, 1.0 µg/mL; in assay [3], 1.0 µg/mL; in assay [4], under 0.1 µg/mL; against Pseudomonas corrugata, 0.5 µg/mL.
For LRILRRLLRRLF-NH2 [SP10-7], the MIC in assay [1] was 5.0 µg/mL; in assay [2], over 10 µg/mL; in the assay on Xanthomonas vesicatoria, 5.0 µg/mL; in assay [3], 1.0 µg/mL; in assay [4], over 10 µg/mL; against Pseudomonas corrugata it was 2.5 µg/mL.
For the substance KRRKLAFRAFRFALKAVLKK-NH2 [SP13-13], the MIC is 0.5 µg/mL in assay [1]; over 10 µg/mL in assay [2]; 0.25 µg/mL in the assay on Xanthomonas vesicatoria; 2.5 µg/mL in assay [3]; 0.5 µg/mL in assay [4]; 0.25 µg/mL against Pseudomonas corrugata.
As to KRKKLLKRLI-NH2 [SP1-16], the MIC in assay [1] is over 10 µg/mL; in assay [2], over 10 µg/mL; against Xanthomonas vesicatoria, 10 µg/mL; in assay [3] it was 1.0 µg/mL; in assay [4] it was 0.1 µg/mL; against Pseudomonas corrugata, 0.5 µg/mL.
Regarding KRRLALFRLFRLALKLVLKK-NH2 [SP13-11], the MIC in assay [1] is 2.5 µg/mL; in assay [2], over 10 µg/mL; against Xanthomonas vesicatoria it was 2.5 µg/mL; in assay [3], 2.5 µg/mL; in assay [4], over 10 µg/mL; against Pseudomonas corrugata, over 10 µg/mL.
KRRKAIKILKLIAKAIRKKR-NH2 [SP13-9]: the minimal inhibitory concentration (MIC) was 0.25 µg/mL in assay [1]; over 10 µg/mL in assay [2]; 0.1 µg/mL against Xanthomonas vesicatoria; over 10 µg/mL in assay [3]; over 10 µg/mL in assay [4]; 0.25 µg/mL with Pseudomonas corrugata.
With RKKKLKFFKRLF-NH2 [SP1-11], the minimal inhibitory concentration (MIC) in assay [1] was 2.5 µg/mL; in assay [2], over 10 µg/mL; with Xanthomonas vesicatoria, 2.5 µg/mL; in assay [3] it was over 10 µg/mL; in assay [4] it was 1.0 µg/mL; in the assay on Pseudomonas corrugata, 0.25 µg/mL.
Regarding LRKAKKIAKKLF-NH2 [SP10-11], the MIC is 5.0 µg/mL in assay [1]; over 10 µg/mL in assay [2]; 0.5 µg/mL in the assay on Xanthomonas vesicatoria; 0.5 µg/mL in assay [3]; 0.1 µg/mL in assay [4]; 0.5 µg/mL against Pseudomonas corrugata.
In the case of RKKKLKVVKRLV-NH2 [SP1-6], the MIC is 10 µg/mL in assay [1]; over 10 µg/mL in assay [2]; over 10 µg/mL in the assay with Xanthomonas vesicatoria; 1.0 µg/mL in assay [3]; 5.0 µg/mL in assay [4]; over 10 µg/mL against Pseudomonas corrugata.
Turning to KRRLILRILRLAIRILVKKR-NH2 [SP13-3], the MIC in assay [1] was 2.5 µg/mL; in assay [2], over 10 µg/mL; in the assay on Xanthomonas vesicatoria, 2.5 µg/mL; in assay [3], 10 µg/mL; in assay [4], over 10 µg/mL; with Pseudomonas corrugata, over 10 µg/mL.
KRRKLIKILKLIAKLIRKKR-NH2 [SP13-7]: the MIC is 0.25 µg/mL in assay [1]; over 10 µg/mL in assay [2]; 0.1 µg/mL with Xanthomonas vesicatoria; 10 µg/mL in assay [3]; over 10 µg/mL in assay [4]; 0.5 µg/mL against Pseudomonas corrugata.
For the substance RKKKKKIIKKLI-NH2 [SP1-21], the MIC is over 10 µg/mL in assay [1]; over 10 µg/mL in assay [2]; over 10 µg/mL against Xanthomonas vesicatoria; 2.5 µg/mL in assay [3]; 0.5 µg/mL in assay [4]; 2.5 µg/mL against Pseudomonas corrugata.
Turning to LRIIRRILRRLI-NH2 [SP10-6], the MIC in assay [1] was determined as 2.5 µg/mL; in assay [2], 2.5 µg/mL; against Xanthomonas vesicatoria, 1.0 µg/mL; in assay [3], 1.0 µg/mL; in assay [4] it was 2.5 µg/mL; in the assay on Pseudomonas corrugata, 2.5 µg/mL.
In the case of KRRKLAFRLFRLFLKLVLKK-NH2 [SP13-14], the MIC in assay [1] is 0.5 µg/mL; in assay [2] it was over 10 µg/mL; against Xanthomonas vesicatoria, 0.25 µg/mL; in assay [3], 2.5 µg/mL; in assay [4], 5.0 µg/mL; with Pseudomonas corrugata, 2.5 µg/mL.
For the substance KRKKLLKRLL-NH2 [SP1-15], the MIC in assay [1] was 5.0 µg/mL; in assay [2], over 10 µg/mL; against Xanthomonas vesicatoria, 5.0 µg/mL; in assay [3], 1.0 µg/mL; in assay [4], 0.1 µg/mL; with Pseudomonas corrugata, under 0.1 µg/mL.
For RKKKAKIIKKII-NH2 [SP1-10], the MIC was over 10 µg/mL in assay [1]; over 10 µg/mL in assay [2]; over 10 µg/mL against Xanthomonas vesicatoria; over 10 µg/mL in assay [3]; 1.0 µg/mL in assay [4]; 10 µg/mL against Pseudomonas corrugata.
For RKKKIKIIKRLI-NH2 [SP1-8], the MIC was 5.0 µg/mL in assay [1]; over 10 µg/mL in assay [2]; 2.5 µg/mL in the assay with Xanthomonas vesicatoria; 0.25 µg/mL in assay [4]; 2.5 µg/mL in the assay on Pseudomonas corrugata.
For the substance LRFLKKILKKLF-NH2 [SP10-1], the MIC is 1.0 µg/mL in assay [1]; 2.5 µg/mL in assay [2]; 2.5 µg/mL against Xanthomonas vesicatoria; 1.0 µg/mL in assay [3]; 2.5 µg/mL in assay [4]; 2.5 µg/mL with Pseudomonas corrugata.
In the case of RKKRKKLLKRLL-NH2 [SP1-18], the MIC in assay [1] was 5.0 µg/mL; in assay [2] it was over 10 µg/mL; against Xanthomonas vesicatoria it was 5.0 µg/mL; in assay [3], 1.0 µg/mL; in assay [4], 0.1 µg/mL; in the assay on Pseudomonas corrugata, 0.25 µg/mL.
As to LRFLRRILRRLL-NH2 [SP10-8], the MIC in assay [1] was 0.5 µg/mL; in assay [2] it was 2.5 µg/mL; against Xanthomonas vesicatoria it was 0.5 µg/mL; in assay [3], 1.0 µg/mL; in assay [4], 0.5 µg/mL; with Pseudomonas corrugata, 0.5 µg/mL.
Take KRRLALFRAFRLALKSVLKK-NH2 [SP13-10]: the MIC in assay [1] is 0.1 µg/mL; in assay [2], over 10 µg/mL; in the assay with Xanthomonas vesicatoria, 0.1 µg/mL; in assay [3], 1.0 µg/mL; in assay [4] it was over 10 µg/mL; in the assay on Pseudomonas corrugata, 0.25 µg/mL.
